“Also recorded” adds a separate entry of the source.
Key:
[1] = system: p6/Gluc (HEVΔORF2/3[Gluc]) replicon, KernowC1p6 genotype 3; assay: Dose titration against p6/Gluc replicon in Huh7 cells, Gaussia luciferase readout; type: cell-based, hepatitis E virus
Description: Gaussia luciferase assays.
Statistics—calculation of IC50. Half maximal inhibitory concentrations were calculated by graphing dose-titration data as nonlinear curve fits with three parameters using GraphPad Prism (v8.1.2).

[2] = system: Huh7 cells; assay: ATP-based cell viability assay (CellTiterGlo); settings: Huh7 cells, day 4
Description: Measurement of Cytotoxicity by CellTiterGlo Assay. […] Readout was performed using a Berthold luminometer.

[3] = system: Jc1(p7nsGluc2A) (HCV); type: cell-based, hepatitis C virus; settings: Gluc, RLU normalized to untreated
[4] = system: YFV17D-Gluc-BSD-Ires (YFV17D); type: cell-based, yellow fever virus 17-D vaccine strain
[5] = system: p6/BSR-2A-ZsGreen replicon
[6] = system: Sar55/Gluc (genotype 1); assay: Dose titration against Sar55/Gluc replicon
[7] = system: TW6196E/Gluc (genotype 4); assay: Dose titration against TW6196E/Gluc replicon; settings: genotype 4, poor replicative capacity
[8] = system: p6/Gluc[F470S]; assay: Dose titration against mutant replicon p6/Gluc[F470S]
[9] = system: p6/Gluc[G1634R]; assay: Dose titration against mutant replicon p6/Gluc[G1634R]
[10] = target: HSP90AA1 (Hsp90α1) (Homo sapiens, UniProt P07900); assay: Two-dimensional thermal proteome profiling (CETSA) in crude cell extract; settings: isocotoin 0.5-30 μM, 37-66.3 °C
[11] = target: HSP90AB1 (Hsp90β) (Homo sapiens, UniProt P08238); assay: as above; settings: isocotoin 0.5-30 μM, 37-66.3 °C
[12] = target: T1, ABHD10 (Homo sapiens, UniProt Q9NUJ1); assay: as above; settings: isocotoin 0.5-30 μM, 37-66.3 °C
T1 sequence (Q9NUJ1 53-306): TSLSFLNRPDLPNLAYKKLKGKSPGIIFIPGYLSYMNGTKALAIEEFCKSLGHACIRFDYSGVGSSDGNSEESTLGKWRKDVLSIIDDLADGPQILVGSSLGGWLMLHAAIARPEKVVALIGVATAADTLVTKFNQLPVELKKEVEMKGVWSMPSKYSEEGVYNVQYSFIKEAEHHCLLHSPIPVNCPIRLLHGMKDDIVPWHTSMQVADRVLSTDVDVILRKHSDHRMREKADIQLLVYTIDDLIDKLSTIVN

[13] = target: T2, STOML2 (Homo sapiens, UniProt Q9UJZ1); assay: as above; settings: isocotoin 0.5-30 μM, 37-66.3 °C
T2 sequence (Q9UJZ1 29-356): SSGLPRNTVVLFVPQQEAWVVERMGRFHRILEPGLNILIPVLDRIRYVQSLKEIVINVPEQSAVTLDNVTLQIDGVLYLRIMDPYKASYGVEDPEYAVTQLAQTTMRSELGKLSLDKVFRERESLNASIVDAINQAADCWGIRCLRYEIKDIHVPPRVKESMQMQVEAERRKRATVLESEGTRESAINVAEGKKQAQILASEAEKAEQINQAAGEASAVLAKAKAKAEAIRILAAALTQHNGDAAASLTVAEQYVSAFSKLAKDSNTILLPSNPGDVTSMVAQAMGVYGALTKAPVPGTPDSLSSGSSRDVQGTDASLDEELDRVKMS

[14] = target: T3, OTC (Homo sapiens, UniProt P00480); assay: as above; settings: isocotoin 0.5-30 μM, 37-66.3 °C
T3 sequence (P00480 33-354): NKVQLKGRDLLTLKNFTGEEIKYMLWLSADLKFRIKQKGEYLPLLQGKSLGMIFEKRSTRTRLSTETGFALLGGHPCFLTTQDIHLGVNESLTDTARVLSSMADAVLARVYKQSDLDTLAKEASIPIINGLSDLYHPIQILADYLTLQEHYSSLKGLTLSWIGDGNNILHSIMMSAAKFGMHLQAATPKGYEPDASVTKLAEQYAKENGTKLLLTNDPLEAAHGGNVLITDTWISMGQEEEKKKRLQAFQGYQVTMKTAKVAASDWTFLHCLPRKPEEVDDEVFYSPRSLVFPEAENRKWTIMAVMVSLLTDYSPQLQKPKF

[15] = target: T4, HSPA14 (Homo sapiens, UniProt Q0VDF9); assay: as above; settings: isocotoin 0.5-30 μM, 37-66.3 °C
T4 sequence (Q0VDF9 1-509): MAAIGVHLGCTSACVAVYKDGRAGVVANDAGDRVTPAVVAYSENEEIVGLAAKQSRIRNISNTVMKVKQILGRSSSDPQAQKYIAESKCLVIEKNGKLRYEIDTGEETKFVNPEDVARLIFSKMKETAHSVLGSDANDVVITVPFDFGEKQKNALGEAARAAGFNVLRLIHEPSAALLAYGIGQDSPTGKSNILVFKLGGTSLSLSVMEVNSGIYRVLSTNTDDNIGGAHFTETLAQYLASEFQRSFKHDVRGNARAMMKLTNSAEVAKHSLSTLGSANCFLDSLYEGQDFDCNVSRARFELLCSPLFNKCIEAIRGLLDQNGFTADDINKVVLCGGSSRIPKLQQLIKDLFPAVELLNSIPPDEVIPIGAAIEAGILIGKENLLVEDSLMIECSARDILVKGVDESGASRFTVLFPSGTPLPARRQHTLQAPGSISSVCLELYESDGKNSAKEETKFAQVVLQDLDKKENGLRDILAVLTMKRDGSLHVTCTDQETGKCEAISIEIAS

[16] = system: HEV; assay: In vivo testing in HEV-infected human liver chimeric mice, viral RNA in stool and serum; settings: 50 mg/kg daily intraperitoneally, 7 days

HSP90AB1 (Hsp90β), sequence (P08238 whole entry): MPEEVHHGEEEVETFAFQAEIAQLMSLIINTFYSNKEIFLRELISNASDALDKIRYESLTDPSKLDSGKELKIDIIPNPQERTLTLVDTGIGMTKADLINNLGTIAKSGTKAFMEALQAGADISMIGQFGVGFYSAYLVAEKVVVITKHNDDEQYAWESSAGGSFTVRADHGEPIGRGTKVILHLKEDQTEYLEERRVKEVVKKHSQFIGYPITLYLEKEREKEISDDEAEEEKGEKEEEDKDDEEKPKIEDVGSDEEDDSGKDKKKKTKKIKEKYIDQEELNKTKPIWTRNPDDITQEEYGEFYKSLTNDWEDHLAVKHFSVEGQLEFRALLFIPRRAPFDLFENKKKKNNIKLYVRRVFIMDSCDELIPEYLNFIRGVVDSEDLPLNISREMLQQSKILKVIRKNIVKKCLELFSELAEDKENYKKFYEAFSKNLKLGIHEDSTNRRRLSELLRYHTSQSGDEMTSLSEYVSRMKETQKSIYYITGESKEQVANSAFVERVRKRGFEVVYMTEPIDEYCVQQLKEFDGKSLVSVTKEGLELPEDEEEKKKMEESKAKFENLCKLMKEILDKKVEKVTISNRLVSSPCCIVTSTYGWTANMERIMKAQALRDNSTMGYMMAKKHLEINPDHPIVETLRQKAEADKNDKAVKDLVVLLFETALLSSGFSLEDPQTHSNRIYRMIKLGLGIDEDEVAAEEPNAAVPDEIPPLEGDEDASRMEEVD

Structure (SMILES): COc1cc(O)cc(O)c1C(=O)c1ccccc1 [isocotoin, 4-benzoyl-5-methoxybenzene-1,3-diol]
- IC50 ([1]; Hepatitis E virus, Huh-7, 96 h): 6.1 µM
- inhibition of p6/Gluc (HEV) replication, in words ([1]; Huh7 cells, supernatant Gluc): lower IC50 than ribavirin; also recorded: dose-dependent inhibitory effects; also recorded: dose-dependent inhibition; also recorded: more efficiently than ribavirin; also recorded: inhibits replication; also recorded: to a greater extent than ribavirin
- doses at which cytotoxicity was displayed [2]: ≥ 25 µM
- doses up to which no cytotoxicity was displayed [2]: up to 12.5 μM
- inhibition of HCV replication, in words [3]: dose-dependent inhibitory effects; also recorded: to a greater extent than ribavirin
- inhibition of YFV17D replication, in words [4]: dose-dependent inhibitory effects; also recorded: to a greater extent than ribavirin
- toxicity to cells on passaging ([5]; 30 μM isocotoin dose): some toxicity
- ZsGreen levels on passaging ([5]; 30 μM isocotoin, first few passages): sharp decrease in ZsGreen levels
- inhibition of Sar55/Gluc replication, in words [6]: lower IC50 than ribavirin; also recorded: inhibits replication
- inhibition of TW6196E/Gluc replication, in words [7]: modest inhibitory effect; also recorded: inhibits replication
- sensitivity of p6/Gluc[F470S], in words [8]: higher sensitivity to isocotoin than to ribavirin
- sensitivity of p6/Gluc[G1634R], in words [9]: higher sensitivity to isocotoin than to ribavirin
- thermal stabilization / soluble protein fraction of HSP90AA1 [10]: thermal stabilization; also recorded: among hits showing the greatest increase in soluble protein fraction
- thermal stabilization / soluble protein fraction of HSP90AB1 [11]: thermal stabilization; also recorded: relatively modest, but identifiable increase
- soluble protein fraction of ABHD10 [12]: among hits showing the greatest increase in soluble protein fraction
- soluble protein fraction of STOML2 [13]: among hits showing the greatest increase in soluble protein fraction
- soluble protein fraction of OTC [14]: among hits showing the greatest increase in soluble protein fraction
- thermal shift of HSPA14 [15]: did not produce a thermal shift
- viral RNA levels in stool and serum pre- and post-treatment [16]: not a clear decrease in viral levels; also recorded: did not result in a reduction in viral titers

— patent US20220362276A1, “Small Molecule Inhibitors of Viral Replication” (The Trustees of Princeton University, priority 2019, published 2022)
